Measured values reported in ChEMBL document CHEMBL5500366, “Discovery of the small molecular inhibitors against sclerostin loop3 as potential anti-osteoporosis agents by structural based virtual screening and molecular design” (Eur J Med Chem, 2024).
The source made the active and inactive calls. No cut-off for these calls is given here.

Legend:
[1] = Half-life in sc dosed Sprague-Dawley rat; format: ADME, organism-based; details: in vivo
[2] = Cmax in sc dosed Sprague-Dawley rat; format: ADME, organism-based; details: in vivo
[3] = species on record: Homo sapiens; assay: Binding affinity to FABP (unknown origin)
[4] = AUC in sc dosed Sprague-Dawley rat; format: ADME, organism-based; details: in vivo
[5] = molecular target: Albumin (Homo sapiens, UniProt P02768); assay: Binding affinity to human serum albumin; format: ADME; details: isolated protein
[6] = molecular target: T1, Sclerostin (Homo sapiens, UniProt Q9BQB4); assay: Binding affinity to SOST (unknown origin) by SPR analysis
T1 sequence (Q9BQB4 whole entry): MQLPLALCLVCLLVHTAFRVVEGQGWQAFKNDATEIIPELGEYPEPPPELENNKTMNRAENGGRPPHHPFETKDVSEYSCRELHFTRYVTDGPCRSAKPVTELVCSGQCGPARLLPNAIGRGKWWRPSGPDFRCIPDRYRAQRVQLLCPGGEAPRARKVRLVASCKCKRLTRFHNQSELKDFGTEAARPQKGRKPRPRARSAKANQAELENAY

[7] = molecular target: T1, Sclerostin; assay: Binding affinity to SOST loop3 (unknown origin) by SPR analysis
[8] = molecular target: T1, Sclerostin; assay: Binding affinity to SOST loop2 (unknown origin) by SPR analysis

Sequence of Albumin (P02768 whole entry): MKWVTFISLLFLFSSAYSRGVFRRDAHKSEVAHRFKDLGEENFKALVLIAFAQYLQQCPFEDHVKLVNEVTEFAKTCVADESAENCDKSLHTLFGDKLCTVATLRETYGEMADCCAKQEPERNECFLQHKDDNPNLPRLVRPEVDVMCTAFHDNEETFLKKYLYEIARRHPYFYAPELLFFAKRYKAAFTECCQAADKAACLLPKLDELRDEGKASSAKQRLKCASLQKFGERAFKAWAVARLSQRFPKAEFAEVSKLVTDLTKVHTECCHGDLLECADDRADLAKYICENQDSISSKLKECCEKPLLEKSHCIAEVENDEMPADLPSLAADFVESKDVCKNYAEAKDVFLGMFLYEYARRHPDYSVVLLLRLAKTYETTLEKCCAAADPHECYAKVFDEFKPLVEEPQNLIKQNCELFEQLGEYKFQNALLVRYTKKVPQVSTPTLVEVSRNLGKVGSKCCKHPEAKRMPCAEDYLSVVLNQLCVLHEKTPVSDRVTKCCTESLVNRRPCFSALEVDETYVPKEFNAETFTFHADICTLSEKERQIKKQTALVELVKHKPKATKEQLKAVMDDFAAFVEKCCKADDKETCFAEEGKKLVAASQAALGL

| Kd [6] [nM] | Kd [8] [nM] | SMILES | other results |
| --- | --- | --- | --- |
|  |  | CC(=O)NCC#Cc1ccc(C(=O)NCC(=O)O)cc1 | half-life [1]: 1.94 h; Cmax [2]: 5.81 ng/mL; Activity [3]: inactive; AUC [4]: 59.2 ng·h/mL; Activity [5]: Not Active |
| 37.7 |  | Nc1nc2c(c(=O)[nH]1)NC(CNc1ccc(C(=O)N[C@@H](CCC(=O)O)C(=O)O)cc1)CN2 (some centres undefined) | Kd [7]: 42.4 nM |
| 2630 |  | O=C1c2c(O)cc(O)cc2O[C@@H](c2ccc(O)c(O)c2)[C@H]1O [(+)-EPITAXIFOLIN] |  |
| 1580 | 1840 | Oc1cc(O)c2c(c1)O[C@H](c1ccc(O)c(O)c1)[C@@H](O)C2 [CIANIDANOL] |  |
| 273 | 231 | O=c1ccc2ccccc2o1 [COUMARIN] |  |
| 4780 | 3900 | O=C1c2c(O)cc(O)cc2O[C@@H](c2cc(O)c(O)c(O)c2)[C@H]1O |  |
